{"source": "ChEMBL document CHEMBL1255248", "about": "“Fitness of Streptococcus pneumoniae fluoroquinolone-resistant strains with topoisomerase IV recombinant genes” (2008)", "key": {"Streptococcus pneumoniae [1]": {"tested_on": "Streptococcus pneumoniae", "experiment": "Antimicrobial activity against ciprofloxacin-resistant Streptococcus pneumoniae T1 harboring parC mutant gene by agar dilution method"}, "Streptococcus pneumoniae [2]": {"tested_on": "Streptococcus pneumoniae", "experiment": "Antimicrobial activity against ciprofloxacin-resistant Streptococcus pneumoniae T2 harboring gyrA mutant gene by agar dilution method"}, "Streptococcus pneumoniae [3]": {"tested_on": "Streptococcus pneumoniae", "experiment": "Antimicrobial activity against ciprofloxacin-resistant Streptococcus pneumoniae T3 harboring gyrA mutant gene by agar dilution method"}, "Streptococcus pneumoniae [4]": {"tested_on": "Streptococcus pneumoniae", "experiment": "Antimicrobial activity against ciprofloxacin-resistant Streptococcus pneumoniae T4 harboring gyrA mutant gene by agar dilution method"}, "Streptococcus pneumoniae [5]": {"tested_on": "Streptococcus pneumoniae", "experiment": "Antimicrobial activity against ciprofloxacin-resistant Streptococcus pneumoniae T16 harboring parC mutant gene by agar dilution method"}, "Streptococcus pneumoniae [6]": {"tested_on": "Streptococcus pneumoniae", "experiment": "Antimicrobial activity against ciprofloxacin-resistant Streptococcus pneumoniae T20 harboring gyrA mutant gene by agar dilution method"}, "Streptococcus pneumoniae [7]": {"tested_on": "Streptococcus pneumoniae", "experiment": "Antimicrobial activity against ciprofloxacin-resistant Streptococcus pneumoniae T18 harboring gyrA mutant gene by agar dilution method"}, "Streptococcus pneumoniae [8]": {"tested_on": "Streptococcus pneumoniae", "experiment": "Antimicrobial activity against ciprofloxacin-resistant Streptococcus pneumoniae T19 harboring gyrA mutant gene by agar dilution method"}, "Streptococcus pneumoniae [9]": {"tested_on": "Streptococcus pneumoniae", "experiment": "Antimicrobial activity against ciprofloxacin-resistant Streptococcus pneumoniae T21 harboring parC mutant gene by agar dilution method"}, "Streptococcus pneumoniae [10]": {"tested_on": "Streptococcus pneumoniae", "experiment": "Antimicrobial activity against ciprofloxacin-resistant Streptococcus pneumoniae T25 harboring gyrA mutant gene by agar dilution method"}, "Streptococcus pneumoniae [11]": {"tested_on": "Streptococcus pneumoniae", "experiment": "Antimicrobial activity against ciprofloxacin-resistant Streptococcus pneumoniae T23 harboring gyrA mutant gene by agar dilution method"}, "Streptococcus pneumoniae [12]": {"tested_on": "Streptococcus pneumoniae", "experiment": "Antimicrobial activity against ciprofloxacin-resistant Streptococcus pneumoniae T24 harboring gyrA mutant gene by agar dilution method"}, "Streptococcus pneumoniae [13]": {"tested_on": "Streptococcus pneumoniae", "experiment": "Antimicrobial activity against ciprofloxacin-resistant Streptococcus pneumoniae T26 harboring parC mutant gene by agar dilution method"}, "Streptococcus pneumoniae [14]": {"tested_on": "Streptococcus pneumoniae", "experiment": "Antimicrobial activity against ciprofloxacin-resistant Streptococcus pneumoniae T30 harboring gyrA mutant gene by agar dilution method"}, "Streptococcus pneumoniae [15]": {"tested_on": "Streptococcus pneumoniae", "experiment": "Antimicrobial activity against ciprofloxacin-resistant Streptococcus pneumoniae T28 harboring gyrA mutant gene by agar dilution method"}, "Streptococcus pneumoniae [16]": {"tested_on": "Streptococcus pneumoniae", "experiment": "Antimicrobial activity against ciprofloxacin-resistant Streptococcus pneumoniae T29 harboring gyrA mutant gene by agar dilution method"}, "Streptococcus pneumoniae [17]": {"tested_on": "Streptococcus pneumoniae", "experiment": "Antimicrobial activity against ciprofloxacin-resistant Streptococcus pneumoniae T6 harboring parC mutant gene by agar dilution method"}, "Streptococcus pneumoniae [18]": {"tested_on": "Streptococcus pneumoniae", "experiment": "Antimicrobial activity against ciprofloxacin-resistant Streptococcus pneumoniae T7 harboring gyrA mutant gene by agar dilution method"}, "Streptococcus pneumoniae [19]": {"tested_on": "Streptococcus pneumoniae", "experiment": "Antimicrobial activity against ciprofloxacin-resistant Streptococcus pneumoniae T8 harboring gyrA mutant gene by agar dilution method"}, "Streptococcus pneumoniae [20]": {"tested_on": "Streptococcus pneumoniae", "experiment": "Antimicrobial activity against ciprofloxacin-resistant Streptococcus pneumoniae T9 harboring gyrA mutant gene by agar dilution method"}, "Streptococcus pneumoniae [21]": {"tested_on": "Streptococcus pneumoniae", "experiment": "Antimicrobial activity against ciprofloxacin-resistant Streptococcus pneumoniae T11 harboring parE-ant-parC mutant gene by agar dilution method"}, "Streptococcus pneumoniae [22]": {"tested_on": "Streptococcus pneumoniae", "experiment": "Antimicrobial activity against ciprofloxacin-resistant Streptococcus pneumoniae T12 harboring gyrA mutant gene by agar dilution method"}, "Streptococcus pneumoniae [23]": {"tested_on": "Streptococcus pneumoniae", "experiment": "Antimicrobial activity against ciprofloxacin-resistant Streptococcus pneumoniae T13 harboring gyrA mutant gene by agar dilution method"}, "Streptococcus pneumoniae [24]": {"tested_on": "Streptococcus pneumoniae", "experiment": "Antimicrobial activity against ciprofloxacin-resistant Streptococcus pneumoniae T14 harboring gyrA mutant gene by agar dilution method"}}, "data": [{"smiles": "O=C(O)c1cn(C2CC2)c2cc(N3CCNCC3)c(F)cc2c1=O", "note": "[CIPROFLOXACIN]", "values": [{"measurement": "MIC", "setting": "Streptococcus pneumoniae [1]", "result": 4, "unit": "µg/mL"}, {"measurement": "MIC", "setting": "Streptococcus pneumoniae [2]", "result": 32, "unit": "µg/mL"}, {"measurement": "MIC", "setting": "Streptococcus pneumoniae [3]", "result": 32, "unit": "µg/mL"}, {"measurement": "MIC", "setting": "Streptococcus pneumoniae [4]", "result": 32, "unit": "µg/mL"}, {"measurement": "MIC", "setting": "Streptococcus pneumoniae [5]", "result": 2, "unit": "µg/mL"}, {"measurement": "MIC", "setting": "Streptococcus pneumoniae [6]", "result": 32, "unit": "µg/mL"}, {"measurement": "MIC", "setting": "Streptococcus pneumoniae [7]", "result": 64, "unit": "µg/mL"}, {"measurement": "MIC", "setting": "Streptococcus pneumoniae [8]", "result": 32, "unit": "µg/mL"}, {"measurement": "MIC", "setting": "Streptococcus pneumoniae [9]", "result": 2, "unit": "µg/mL"}, {"measurement": "MIC", "setting": "Streptococcus pneumoniae [10]", "result": 16, "unit": "µg/mL"}, {"measurement": "MIC", "setting": "Streptococcus pneumoniae [11]", "result": 16, "unit": "µg/mL"}, {"measurement": "MIC", "setting": "Streptococcus pneumoniae [12]", "result": 16, "unit": "µg/mL"}, {"measurement": "MIC", "setting": "Streptococcus pneumoniae [13]", "result": 4, "unit": "µg/mL"}, {"measurement": "MIC", "setting": "Streptococcus pneumoniae [14]", "result": 32, "unit": "µg/mL"}, {"measurement": "MIC", "setting": "Streptococcus pneumoniae [15]", "result": 32, "unit": "µg/mL"}, {"measurement": "MIC", "setting": "Streptococcus pneumoniae [16]", "result": 32, "unit": "µg/mL"}, {"measurement": "MIC", "setting": "Streptococcus pneumoniae [17]", "result": 2, "unit": "µg/mL"}, {"measurement": "MIC", "setting": "Streptococcus pneumoniae [18]", "result": 32, "unit": "µg/mL"}, {"measurement": "MIC", "setting": "Streptococcus pneumoniae [19]", "result": 32, "unit": "µg/mL"}, {"measurement": "MIC", "setting": "Streptococcus pneumoniae [20]", "result": 32, "unit": "µg/mL"}, {"measurement": "MIC", "setting": "Streptococcus pneumoniae [21]", "result": 2, "unit": "µg/mL"}, {"measurement": "MIC", "setting": "Streptococcus pneumoniae [22]", "result": 32, "unit": "µg/mL"}, {"measurement": "MIC", "setting": "Streptococcus pneumoniae [23]", "result": 32, "unit": "µg/mL"}, {"measurement": "MIC", "setting": "Streptococcus pneumoniae [24]", "result": 32, "unit": "µg/mL"}]}]}
